According to US11491148B2, “Amide derivatives useful in the treatment of HBV infection or HBV-induced diseases” (Janssen Sciences Ireland Unlimited Company, priority 2019, dated 2022):
Where a name gives a salt, the structure may show the parent alone. Read-outs that look alike come from different tables or passages of the source.

What was measured:
[1] = Cytotoxicity, ATPlite cell viability (TOX-HepG2.117); type: cell-based, human; conditions: human; HepG2.117 cells, incubated for 3 days, ATPlite, mean value
Procedure: Cytotoxicity of the compounds was tested using HepG2 or HepG2.117 cells, incubated for 3 days in the presence of compounds. The viability of the cells was assessed using the Perkin Elmer ATPlite Luminescence Assay System.”

HBV = test: Anti-HBV activity, intracellular HBV DNA by real-time PCR (HBV-AVE-HepG2.117); type: cell-based, Hepatitis B virus; conditions: read-out: HBV-AVE-HepG2.117 EC50 (μM; mean value)
Procedure: The anti HBV activity was measured using the HepG2.117 cell line, a stable, inducible HBV producing cell line, which replicates HBV in the absence of doxicycline (Tet-off system). The HepG2 cell line is available from ATCC®) under number HB-8065. Transfection of the HepG2 cell line can be as described in Sun and Nassal 2006 Journal of Hepatology 45 (2006) 636-645 “Stable HepG2- and Huh7-based human hepatoma cell lines for efficient regulated expression of infectious hepatitis B virus”.
For the antiviral assay, HBV replication was induced, followed by a treatment with serially diluted compound in 96-well plates. After 3 days of treatment, the antiviral activity was determined by quantification of intracellular HBV DNA using real-time PCR and an HBV specific primer set and probe.

[2] = Hepatitis B virus, HepG2.117, 72 h, HepG2.117 cell line, 3 days of treatment, intracellular HBV DNA, mean value
[3] = Hepatitis B virus, HepG2.117, 72 h

| SMILES | CC50 at 3 days [1] [µM] | EC50 (HBV; [2]) [µM] | EC50 (HBV; HepG2.117 cell line, 3 days of treatment, intracellular HBV DNA, mean value, hydrochloride) [µM] | EC50 (HBV; [3]) [µM] |
| --- | --- | --- | --- | --- |
| C[C@H]1[C@@H](C(=O)Nc2ccc(Cl)c(Cl)c2)CCN1C(=O)C(=O)N[C@H](CC(F)(F)F)c1c[nH]nn1 (single isomer, unassigned) [C25R*] | 25.7 | 0.017 |  |  |
| C[C@H]1[C@@H](C(=O)Nc2ccc(Cl)c(Cl)c2)CCN1C(=O)C(=O)N[C@@H](CC(F)(F)F)c1c[nH]nn1 (single isomer, unassigned) [C25S*] | > 50 | 0.074 |  |  |
| C[C@H]1[C@@H](C(=O)Nc2ccc(F)c(C#N)c2)CCN1C(=O)C(=O)N[C@H](CC(F)(F)F)c1c[nH]nn1 (single isomer, unassigned) [C28R*] | > 50 | 0.032 |  |  |
| C[C@H]1[C@@H](C(=O)Nc2ccc(F)c(C#N)c2)CCN1C(=O)C(=O)N[C@@H](CC(F)(F)F)c1c[nH]nn1 (single isomer, unassigned) [C28S*] | > 50 | 0.07 |  |  |
| C[C@H]1[C@@H](C(=O)Nc2cc(F)c(F)c(F)c2)CCN1C(=O)C(=O)N[C@H](CC(F)(F)F)c1c[nH]nn1 (single isomer, unassigned) [C29R*] | > 50 | 0.014 |  |  |
| C[C@H]1[C@@H](C(=O)Nc2cc(F)c(F)c(F)c2)CCN1C(=O)C(=O)N[C@@H](CC(F)(F)F)c1c[nH]nn1 (single isomer, unassigned) [C29S*] | > 50 | 0.042 |  |  |
| C[C@H]1[C@@H](C(=O)Nc2ccc(F)c(C(F)(F)F)c2)CCN1C(=O)C(=O)N[C@H](CC(F)(F)F)c1c[nH]nn1 (single isomer, unassigned) [C30R*] | > 50 | 0.037 |  |  |
| C[C@H]1[C@@H](C(=O)Nc2ccc(F)c(C(F)(F)F)c2)CCN1C(=O)C(=O)N[C@@H](CC(F)(F)F)c1c[nH]nn1 (single isomer, unassigned) [C30S*] | > 50 | 0.06 |  |  |
| C[C@H]1[C@@H](C(=O)Nc2ccc(F)c(C(F)F)c2F)CCN1C(=O)C(=O)N[C@H](CC(F)(F)F)c1c[nH]nn1 (single isomer, unassigned) [C31R*] | > 50 | 0.021 |  |  |
| C[C@H]1[C@@H](C(=O)Nc2ccc(F)c(C(F)F)c2F)CCN1C(=O)C(=O)N[C@@H](CC(F)(F)F)c1c[nH]nn1 (single isomer, unassigned) [C31S*] | > 50 | 0.056 |  |  |
| C[C@H]1[C@@H](C(=O)Nc2cc(F)c(F)c(Cl)c2)CCN1C(=O)C(=O)N[C@H](CC(F)(F)F)c1c[nH]nn1 (single isomer, unassigned) [C32R*] | > 50 | 0.007 |  |  |
| C[C@H]1[C@@H](C(=O)Nc2cc(F)c(F)c(Cl)c2)CCN1C(=O)C(=O)N[C@@H](CC(F)(F)F)c1c[nH]nn1 (single isomer, unassigned) [C32S*] | > 50 | 0.031 |  |  |
| C[C@H]1[C@@H](C(=O)Nc2cc(F)c(F)c(F)c2)CCN1C(=O)C(=O)N[C@](C)(CC(F)F)c1c[nH]nn1 (single isomer, unassigned) [C33R*] | > 50 | 0.034 |  |  |
| C[C@H]1[C@@H](C(=O)Nc2cc(F)c(F)c(F)c2)CCN1C(=O)C(=O)N[C@@](C)(CC(F)F)c1c[nH]nn1 (single isomer, unassigned) [C33S*] | > 50 | 0.04 |  |  |
| C[C@H]1[C@@H](C(=O)Nc2ccc(F)c(Cl)c2)CCN1C(=O)C(=O)N[C@H](CC(F)(F)F)c1c[nH]nn1 (single isomer, unassigned) [C34R*] | > 50 | 0.003 |  |  |
| C[C@H]1[C@@H](C(=O)Nc2ccc(F)c(Cl)c2)CCN1C(=O)C(=O)N[C@@H](CC(F)(F)F)c1c[nH]nn1 (single isomer, unassigned) [C34S*] | > 50 | 0.035 |  |  |
| C[C@H]1[C@@H](C(=O)Nc2ccc(F)c(Cl)c2F)CCN1C(=O)C(=O)N[C@H](CC(F)(F)F)c1c[nH]nn1 (single isomer, unassigned) [C37R*] | > 50 | 0.014 |  |  |
| C[C@H]1[C@@H](C(=O)Nc2ccc(F)c(Cl)c2F)CCN1C(=O)C(=O)N[C@@H](CC(F)(F)F)c1c[nH]nn1 (single isomer, unassigned) [C37S*] | > 50 | 0.043 |  |  |
| N#Cc1cc(NC(=O)[C@H]2CCN(C(=O)C(=O)NC3(c4c[nH]nn4)CC(F)(F)C3)C2)ccc1F [C1, (3S)—N-(3-Cyano-4-fluorophenyl)-1-[{[3,3-difluoro-1-(1H-1,2,3-triazol-4-yl)cyclobutyl]amino}(oxo)acetyl]pyrrolidine-3-carboxamide] | > 50 | 0.15 |  |  |
| N#Cc1cc(NC(=O)[C@H]2CCN(C(=O)C(=O)NC3(c4c[nH]nn4)CC(F)(F)C3)C2)ccc1F [C1•HCl, (3S)—N-(3-Cyano-4-fluorophenyl)-1-[{[3,3-difluoro-1-(1H-1,2,3-triazol-4-yl)cyclobutyl]amino}(oxo)acetyl]pyrrolidine-3-carboxamide hydrochloride] |  |  | 0.27 |  |

| SMILES | CC50 at 3 days [1] [µM] | EC50 (HBV; [2]) [µM] | EC50 (HBV; HepG2.117 cell line, 3 days of treatment, intracellular HBV DNA, mean value, hydrochloride) [µM] | EC50 (HBV; [3]) [µM] |
| --- | --- | --- | --- | --- |
| Cc1cc(NC(=O)[C@H]2CCN(C(=O)C(=O)NC3(c4c[nH]nn4)CC(F)(F)C3)C2)ccc1F [C2, (3S)-1-[{[3,3-Difluoro-1-(1H-1,2,3-triazol-4-yl)cyclobutyl]amino}(oxo)acetyl]-N-(4-fluoro-3-methylphenyl)pyrrolidine-3-carboxamide] | > 50 | 0.079 |  |  |
| C[C@H]1[C@@H](C(=O)Nc2cc(F)c(F)c(F)c2)CCN1C(=O)C(=O)NC1(c2c[nH]nn2)CC(F)(F)C1 [C3, (2S,3S)-1-[{[3,3-Difluoro-1-(1H-1,2,3-triazol-4-yl)cyclobutyl]amino}(oxo)acetyl]-2-methyl-N-(3,4,5-trifluorophenyl)pyrrolidine-3-carboxamide] | > 50 |  |  | 0.011 |
| O=C(NC1(c2c[nH]nn2)CC(F)(F)C1)C(=O)N1CC[C@H](C(=O)Nc2cc(F)c(F)c(F)c2)C1 [C4, (3S)-1-[{[3,3-Difluoro-1-(1H-1,2,3-triazol-4-yl)cyclobutyl]amino}(oxo)acetyl]-N-(3,4,5-trifluorophenyl)pyrrolidine-3-carboxamide] | > 50 | 0.053 |  |  |
| O=C(NC1(c2c[nH]nn2)CC(F)(F)C1)C(=O)N1CC[C@H](C(=O)Nc2ccc(F)c(Cl)c2)C1 [C5, (3S)—N-(3-Chloro-4-fluorophenyl)-1-[{[3,3-difluoro-1-(1H-1,2,3-triazol-4-yl)cyclobutyl]amino}(oxo)acetyl]pyrrolidine-3-carboxamide] | > 50 |  |  | 0.04 |
| C[C@H]1[C@@H](C(=O)Nc2ccc(F)c(C#N)c2)CCN1C(=O)C(=O)NC1(c2c[nH]nn2)CC(F)(F)C1 [C6, (2S,3S)—N-(3-Cyano-4-fluorophenyl)-1-[{[3,3-difluoro-1-(1H-1,2,3-triazol-4-yl)cyclobutyl]amino}(oxo)acetyl]-2-methylpyrrolidine-3-carboxamide] | > 50 |  |  | 0.044 |
| O=C(NC1(c2c[nH]nn2)CC(F)(F)C1)C(=O)N1CC[C@H](C(=O)Nc2ccc(Cl)c(Cl)c2)C1 [C7] | > 50 | 0.1 |  |  |
| O=C(NC1(c2c[nH]nn2)CC(F)(F)C1)C(=O)N1CC[C@H](C(=O)Nc2cc(F)c(F)c(Cl)c2)C1 [C8] | > 50 | 0.045 |  |  |
| C[C@@H]1CN(C(=O)C(=O)NC2(c3c[nH]nn3)CC(F)(F)C2)C[C@H]1C(=O)Nc1cc(F)c(F)c(F)c1 [C9] | > 50 | 0.204 |  |  |
| C[C@H]1CN(C(=O)C(=O)NC2(c3c[nH]nn3)CC(F)(F)C2)C[C@H]1C(=O)Nc1cc(F)c(F)c(F)c1 [C10] | > 50 | 0.578 |  |  |
| O=C(NC1(c2c[nH]nn2)CC(F)(F)C1)C(=O)N1CC[C@H](C(=O)Nc2ccnc(Cl)c2)C1 [C11] | > 50 | 1.5 |  |  |
| O=C(NC1(c2c[nH]nn2)CC(F)(F)C1)C(=O)N1CC[C@H](C(=O)Nc2ccnc(C(F)F)c2)C1 [C12] | > 50 | 1.29 |  |  |
| C[C@H]1C[C@H](C(=O)Nc2ccc(F)c(C#N)c2)CN1C(=O)C(=O)NC1(c2c[nH]nn2)CC(F)(F)C1 [C13] | > 50 | 0.061 |  |  |
| C[C@H]1[C@@H](C(=O)Nc2ccc(F)c(C(F)F)c2F)CCN1C(=O)C(=O)NC1(c2c[nH]nn2)CC(F)(F)C1 [C14] | > 50 | 0.019 |  |  |
| C[C@H]1[C@@H](C(=O)Nc2ccc(Cl)c(Cl)c2)CCN1C(=O)C(=O)NC1(c2c[nH]nn2)CC(F)(F)C1 [C15] | 35.2 | 0.014 |  |  |
| C[C@H]1[C@@H](C(=O)Nc2cc(F)c(F)c(Cl)c2)CCN1C(=O)C(=O)NC1(c2c[nH]nn2)CC(F)(F)C1 [C16] | > 50 | 0.006 |  |  |
| C[C@H]1[C@@H](C(=O)Nc2ccc(F)c(Cl)c2F)CCN1C(=O)C(=O)NC1(c2c[nH]nn2)CC(F)(F)C1 [C17] | > 50 | 0.01 |  |  |
| C[C@H]1[C@@H](C(=O)Nc2ccc(F)c(C(F)(F)F)c2)CCN1C(=O)C(=O)NC1(c2c[nH]nn2)CC(F)(F)C1 [C18] | > 50 | 0.012 |  |  |
| C[C@H]1C[C@H](C(=O)Nc2cc(F)c(F)c(F)c2)CN1C(=O)C(=O)NC1(c2c[nH]nn2)CC(F)(F)C1 [C19] | > 50 | 0.019 |  |  |
| C[C@H]1[C@@H](C(=O)Nc2ccc(F)c(Cl)c2)CCN1C(=O)C(=O)NC1(c2c[nH]nn2)CC(F)(F)C1 [C20] | > 50 | 0.012 |  |  |
